Data: the supplement of paper PMC10307832

Legend:
Test in all cases: relative viability (nuclei count vs DMSO), 5 days (fraction); higher = more cells survive
[1] = compound: COc1cc2nc(N3CCCN(C)CC3)nc(NC3CCN(Cc4ccccc4)CC3)c2cc1OC + COc1cc2c(Oc3ccc(NC(=O)C4(C(=O)Nc5ccc(F)cc5)CC4)cc3F)ccnc2cc1OCCCN1CCOCC1 [Foretinib] (partner 0.25 µM)
Outline: (§1)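 Each reported value is a median over duplicate plates. It expresses relative viability: treated-well nuclei count divided by vehicle-well nuclei count. Lung cancer cell lines in 1536-well plates were dosed by pin tool a day after seeding, alone with one drug or with a fixed anchor-drug dose plus five library-drug doses (not always all listed) in √10 steps, and nuclei were counted after 5 days.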

[2] = compound: COc1cc2nc(N3CCCN(C)CC3)nc(NC3CCN(Cc4ccccc4)CC3)c2cc1OC + CS(=O)(=O)N1CCN(Cc2cc3nc(-c4cccc5[nH]ncc45)nc(N4CCOCC4)c3s2)CC1 [Pictilisib] (partner 1 µM)
Outline: as §1

AZD6482 + Tozasertib = compound: Cc1cc([C@@H](C)Nc2ccccc2C(=O)O)c2nc(N3CCOCC3)cc(=O)n2c1 [AZD6482] + Cc1cc(Nc2cc(N3CCN(C)CC3)nc(Sc3ccc(NC(=O)C4CC4)cc3)n2)n[nH]1 [Tozasertib] (partner 0.1 µM)
Outline: as §1

AZD6482 + Olaparib = compound: Cc1cc([C@@H](C)Nc2ccccc2C(=O)O)c2nc(N3CCOCC3)cc(=O)n2c1 [AZD6482] + O=C(c1cc(Cc2n[nH]c(=O)c3ccccc23)ccc1F)N1CCN(C(=O)C2CC2)CC1 [Olaparib] (partner 8 µM)
Outline: as §1

Row | Cell Line | relative viability ([1]; first compound 0.2 µM) | relative viability ([1]; first compound 0.6325 µM) | relative viability ([1]; first compound 2 µM) | relative viability ([1]; first compound 6.325 µM) | relative viability ([2]; first compound 0.2 µM) | relative viability ([2]; first compound 0.6325 µM) | relative viability ([2]; first compound 2 µM) | relative viability ([2]; first compound 6.325 µM) | relative viability (AZD6482 + Tozasertib; first compound 0.08 µM) | relative viability (AZD6482 + Tozasertib; first compound 0.253 µM) | relative viability (AZD6482 + Tozasertib; first compound 0.8 µM) | relative viability (AZD6482 + Tozasertib; first compound 2.53 µM) | relative viability (AZD6482 + Tozasertib; first compound 8 µM) | relative viability (AZD6482 + Olaparib; first compound 0.08 µM) | relative viability (AZD6482 + Olaparib; first compound 0.253 µM) | relative viability (AZD6482 + Olaparib; first compound 0.8 µM) | relative viability (AZD6482 + Olaparib; first compound 2.53 µM) | relative viability (AZD6482 + Olaparib; first compound 8 µM)
1 | ChaGo-K-1 | 1 | 0.929 | 0.941 | 0.907 | 0.752 | 0.87 | 1.12 | 0.49 | 0.206 | 0.22 | 0.219 | 0.2 | 0.206 | 0.399 | 0.436 | 0.42 | 0.431 | 0.4
2 | NCI-H2228 | 1.02 | 0.711 | 0.729 | 0.499 | 0.385 | 0.256 | 0.405 | 0.175 |  | 0.257 | 0.235 | 0.287 | 0.155 | 0.494 | 0.546 | 0.569 | 0.466 | 0.569
3 | PC-14 | 1.01 | 0.959 | 0.939 | 0.885 | 0.676 | 0.541 | 0.838 | 0.239 | 0.556 | 0.61 | 0.619 | 0.613 | 0.524 | 0.247 | 0.337 | 0.405 | 0.308 | 0.36
4 | NCI-H1437 | 1.21 | 1.21 | 1.38 | 1.23 | 0.436 | 0.496 | 0.49 | 0.323 | 0.393 | 0.408 | 0.301 | 0.325 | 0.254 | 0.644 | 0.672 | 0.651 | 0.599 | 0.557
5 | NCI-H460 | 0.922 | 0.952 | 1.03 | 0.993 | 0.306 | 0.513 | 0.359 | 0.332 | 0.468 | 0.288 | 0.135 | 0.537 | 0.389 | 0.335 | 0.394 | 0.435 | 0.216 | 0.327
6 | NCI-H1666 | 0.897 | 0.969 | 1.13 | 0.932 | 0.547 | 0.424 | 0.579 | 0.275 | 0.544 | 0.701 | 0.592 | 0.554 | 0.648 | 0.731 | 0.722 | 0.777 | 0.712 | 0.773
7 | NCI-H1651 | 0.85 | 0.688 | 0.934 | 0.807 | 0.638 | 0.591 | 0.73 | 0.462 | 0.68 | 0.647 | 0.598 | 0.565 | 0.592 | 0.174 | 0.198 | 0.197 | 0.201 | 0.187
8 | NCI-H1755 | 0.9 | 0.899 | 0.922 | 0.815 | 0.423 | 0.425 | 0.377 | 0.317 | 0.608 | 0.537 | 0.688 | 0.478 | 0.519 | 0.839 | 0.755 | 0.769 | 0.583 | 0.601
9 | NCI-H661 | 1.04 | 0.972 | 1.06 | 0.995 | 0.338 | 0.406 | 0.428 | 0.466 | 0.365 | 0.362 | 0.407 | 0.372 | 0.383 | 0.733 | 0.857 | 0.83 | 0.719 | 0.729
10 | HARA | 0.973 | 0.9 | 0.92 | 0.92 | 0.395 | 0.53 | 0.453 | 0.308 | 0.212 | 0.108 | 0.0865 | 0.111 | 0.0791 | 0.685 | 1.01 | 0.943 | 0.683 | 0.519
11 | NCI-H596 | 0.847 | 0.902 | 0.78 | 0.76 | 0.396 | 0.432 | 0.392 | 0.359 | 0.854 | 1.16 | 0.725 | 0.772 | 0.666 | 0.596 | 0.68 | 1.01 | 0.737 | 0.598
12 | NCI-H23 | 0.914 | 1.06 | 1.12 | 0.918 | 0.438 | 0.491 | 0.574 | 0.362 | 0.489 | 0.302 | 0.398 | 0.358 | 0.228 | 0.26 | 0.371 | 0.411 | 0.266 | 0.247
13 | LCLC-97TM1 | 0.951 | 0.994 | 0.913 | 0.844 | 0.186 |  | 0.149 | 0.139 | 0.206 | 0.208 | 0.168 | 0.158 | 0.128 | 0.403 | 0.285 | 0.413 |  | 0.244
14 | EPLC-272H | 0.783 | 0.723 | 0.847 | 0.686 | 0.314 | 0.439 | 0.303 | 0.305 | 0.185 | 0.111 | 0.211 | 0.277 | 0.157 | 0.567 | 0.681 | 0.687 | 0.463 | 0.294
15 | NCI-H1915 | 1.05 | 1.01 | 1.1 | 1.12 | 0.94 | 0.97 | 1.04 | 0.865 | 0.453 | 0.346 | 0.417 | 0.426 | 0.371 | 0.266 | 0.268 | 0.276 | 0.236 | 0.258
16 | NCI-H2405 | 1.05 | 1 | 1.06 | 1.07 | 0.453 | 0.383 | 0.584 | 0.328 | 0.465 |  | 0.668 | 0.53 | 0.403 | 0.599 | 0.861 | 0.929 | 0.541 | 0.677
17 | NCI-H322M | 0.899 | 0.94 | 1.05 | 0.923 | 0.489 | 0.604 | 0.486 | 0.548 | 0.442 | 0.461 | 0.453 | 0.319 | 0.384 | 0.671 | 0.761 | 0.749 | 0.494 | 0.701
18 | NCI-H2170 | 0.982 | 0.955 | 0.996 | 1.01 | 0.353 | 0.371 | 0.288 | 0.284 | 0.678 | 0.681 | 0.615 | 0.643 | 0.47 | 0.536 | 0.608 | 0.511 | 0.542 | 0.489
